Structures are written as SMILES. Read-outs that look alike come from different tables or passages of the source.

The target of one experiment is T1, DDB1 (Homo sapiens, UniProt Q16531, D705G/DEL396-460/DEL463-701/I704S/T703N).
T1 construct: His6 (N, cleaved yes); TEV protease cleavage site (N, cleaved yes); made in house; host or cells: SF9 insect cells, Bac-to-Bac baculovirus, pFastBacHTB vector
The experiment in a line: SPR binding assay to immobilized DDB1ΔBPB. The following applies: binding affinities to DDB1. The procedure: The binding affinities of heterobifunctional compounds to DDB1 were determined by SPR assay (FIG. 1A-1B). Purified DDB1ΔBPB proteins were immobilized on a CM5 sensor chip, and a dose range of compound solutions were injected in multi-cycle kinetic format. Data were fit to a steady state model to provide equivalent dissociation constants (Kd).
Human DDB1ΔBPB (UniProt: Q16531. BPB domain, aa 396 to 705, is replaced with a GNGNSG linker) coding sequences were cloned into pFastBacHTB vector and were expressed in SF9 cells using Bac-to-Bac baculovirus expression system (Thermo Fisher Scientific). The expression constructs include an N-terminal His6-tag to facilitate the purification, and a TEV protease cleavage site in between. DDB1ΔBPB proteins were obtained from supernatant of cell lysates and purified through sequential application of Ni affinity column (Ni-NTA column, Bio-Rad) and size-exclusion column (Superdex 200 16/600GL column, GE Healthcare) chromatography. Protein tags were cleaved off by TEV protease, and the resulting untagged proteins were further purified by Ni affinity column. Purified proteins were verified by immunoblotting, analytic SEC, and LC-MS.
SPR studies were performed on a Biacore X100 plus instrument (GE Healthcare). Immobilization of purified DDB1ΔBPB was carried out at 25° C. using a CM5 sensor chip. The surface was pre-equilibrated in HBS-EP running buffer (10 mM HEPES, pH7.4, 150 mM NaCl, 3 mM EDTA, 0.05% P20), before it was activated with EDC/NHS. DDB1ΔBPB proteins were immobilized by amine coupling to a density of 10,000-12,000 resonance units (RUs) on flow cell FC2, whereas flow cell FC1 was used as reference. Both protein immobilized and reference surfaces were deactivated with 1M ethanolamine. All interaction experiments were performed at 25° C. Test compounds were prepared and serially diluted in HBS-EP running buffer containing final 5% DMSO (6-point two-fold serial dilution, 100 μM-3.125 μM final concentration of compounds). Compound solutions were injected individually in multi-cycle kinetic format without regeneration (flow rate 30 μl/min, association time 120 s, dissociation time 120 s). Sensorgrams from reference surfaces and blank injections were subtracted from the raw data (double-referencing) and the data was solvent-corrected prior to analysis. All data were fit to steady state affinity model using Biacore Evaluation Software to provide equivalent dissociation constants (Kd).
Background: In SPR one partner is held on a chip, and binding of the other changes the refractive index at the surface.

Another experiment relates to cyclin D1. Kind of experiment: Cyclin D1 percentage degradation in Calu-1 cells (immunoblotting). The format is cell-based. The following applies: 16 hours. A digest of the protocol:
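Cyclin D1 degradation was assessed by western blot. Clarified lysates, obtained by RIPA lysis with inhibitors and centrifugation at 13,000 rpm, were normalized by BCA protein assay and separated by SDS-PAGE. Bands were detected with Western ECL Substrate on a Bio-Rad ChemiDoc MP Imaging system and quantified in Image Lab software to derive percentage degradation.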
In general terms: Immunoblotting shows a protein as a band on a membrane.

A further experiment deals with T2, CDK4 (Homo sapiens, UniProt P11802).
T2 construct: endogenous in cells; host or cells: Calu-1
T2 sequence (P11802 2-303 limits assumed): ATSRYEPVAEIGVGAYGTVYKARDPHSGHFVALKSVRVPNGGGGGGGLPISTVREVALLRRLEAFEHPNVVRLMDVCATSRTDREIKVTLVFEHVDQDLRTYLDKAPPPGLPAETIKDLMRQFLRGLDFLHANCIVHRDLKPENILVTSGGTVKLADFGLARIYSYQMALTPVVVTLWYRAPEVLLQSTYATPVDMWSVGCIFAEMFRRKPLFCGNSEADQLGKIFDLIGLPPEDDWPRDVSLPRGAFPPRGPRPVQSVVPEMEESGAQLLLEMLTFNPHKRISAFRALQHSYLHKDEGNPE
T2 sequence (P24385 whole entry partner): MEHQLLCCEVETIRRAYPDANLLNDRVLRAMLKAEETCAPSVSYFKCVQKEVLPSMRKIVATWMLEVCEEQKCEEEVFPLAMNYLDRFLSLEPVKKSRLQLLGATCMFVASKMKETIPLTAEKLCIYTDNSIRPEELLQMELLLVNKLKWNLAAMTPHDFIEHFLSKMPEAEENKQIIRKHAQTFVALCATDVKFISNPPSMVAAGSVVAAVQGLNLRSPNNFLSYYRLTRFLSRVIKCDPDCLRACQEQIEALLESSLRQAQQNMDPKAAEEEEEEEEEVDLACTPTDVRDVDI
T2 sequence (Q16531 2-1140 limits assumed, further chain): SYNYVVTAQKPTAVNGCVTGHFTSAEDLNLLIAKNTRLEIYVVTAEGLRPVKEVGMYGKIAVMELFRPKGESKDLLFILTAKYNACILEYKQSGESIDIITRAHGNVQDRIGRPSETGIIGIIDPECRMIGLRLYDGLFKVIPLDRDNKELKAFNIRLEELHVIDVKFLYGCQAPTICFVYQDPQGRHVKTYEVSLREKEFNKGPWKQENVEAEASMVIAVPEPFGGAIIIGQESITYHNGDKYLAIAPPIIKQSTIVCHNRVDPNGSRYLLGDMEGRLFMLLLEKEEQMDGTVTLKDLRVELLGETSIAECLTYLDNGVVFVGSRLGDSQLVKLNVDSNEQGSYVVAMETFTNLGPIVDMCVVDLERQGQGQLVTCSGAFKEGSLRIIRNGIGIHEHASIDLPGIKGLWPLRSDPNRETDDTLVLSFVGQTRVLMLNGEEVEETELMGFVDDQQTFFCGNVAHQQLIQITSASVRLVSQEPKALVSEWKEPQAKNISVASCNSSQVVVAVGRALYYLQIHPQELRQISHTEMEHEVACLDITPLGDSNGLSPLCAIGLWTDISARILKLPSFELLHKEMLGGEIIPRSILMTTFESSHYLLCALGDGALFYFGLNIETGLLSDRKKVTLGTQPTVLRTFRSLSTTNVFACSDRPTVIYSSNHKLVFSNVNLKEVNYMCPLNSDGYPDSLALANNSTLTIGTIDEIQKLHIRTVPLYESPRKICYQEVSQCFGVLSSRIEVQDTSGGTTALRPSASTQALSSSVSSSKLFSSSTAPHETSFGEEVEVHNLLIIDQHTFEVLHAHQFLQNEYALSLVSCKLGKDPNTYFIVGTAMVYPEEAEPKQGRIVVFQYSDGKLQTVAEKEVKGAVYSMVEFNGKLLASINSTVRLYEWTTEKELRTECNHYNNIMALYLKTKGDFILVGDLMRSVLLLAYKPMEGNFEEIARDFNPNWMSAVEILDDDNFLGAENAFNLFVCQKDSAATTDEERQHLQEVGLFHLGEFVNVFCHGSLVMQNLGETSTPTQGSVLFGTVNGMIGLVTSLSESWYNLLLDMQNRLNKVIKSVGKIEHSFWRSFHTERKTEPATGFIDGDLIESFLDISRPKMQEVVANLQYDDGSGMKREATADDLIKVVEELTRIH
Kind of experiment: CDK4 percentage degradation in Calu-1 cells (immunoblotting). The format is cell-based. The note with it: for inhibition at 0.2 µM: read-out: CDK4 Degradation (200 nM); for inhibition at 10 µM: read-out: CDK4 Degradation (10 μM). A digest of the protocol: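 CDK4 degradation was measured by immunoblotting. Cells were washed in cold PBS and lysed in RIPA buffer with inhibitors for 30 min at 4° C., then spun at 13,000 rpm to clear. After BCA protein determination, lysates were heated at 99° C. for 5 min in Laemmli buffer, resolved on SDS-PAGE, imaged on a ChemiDoc MP with ECL substrate, and band intensities quantified.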

T1 sequence (Q16531 other isoform, or with tags, fused parts or gaps DEL396-460/DEL463-701/T703N/I704S/D705G): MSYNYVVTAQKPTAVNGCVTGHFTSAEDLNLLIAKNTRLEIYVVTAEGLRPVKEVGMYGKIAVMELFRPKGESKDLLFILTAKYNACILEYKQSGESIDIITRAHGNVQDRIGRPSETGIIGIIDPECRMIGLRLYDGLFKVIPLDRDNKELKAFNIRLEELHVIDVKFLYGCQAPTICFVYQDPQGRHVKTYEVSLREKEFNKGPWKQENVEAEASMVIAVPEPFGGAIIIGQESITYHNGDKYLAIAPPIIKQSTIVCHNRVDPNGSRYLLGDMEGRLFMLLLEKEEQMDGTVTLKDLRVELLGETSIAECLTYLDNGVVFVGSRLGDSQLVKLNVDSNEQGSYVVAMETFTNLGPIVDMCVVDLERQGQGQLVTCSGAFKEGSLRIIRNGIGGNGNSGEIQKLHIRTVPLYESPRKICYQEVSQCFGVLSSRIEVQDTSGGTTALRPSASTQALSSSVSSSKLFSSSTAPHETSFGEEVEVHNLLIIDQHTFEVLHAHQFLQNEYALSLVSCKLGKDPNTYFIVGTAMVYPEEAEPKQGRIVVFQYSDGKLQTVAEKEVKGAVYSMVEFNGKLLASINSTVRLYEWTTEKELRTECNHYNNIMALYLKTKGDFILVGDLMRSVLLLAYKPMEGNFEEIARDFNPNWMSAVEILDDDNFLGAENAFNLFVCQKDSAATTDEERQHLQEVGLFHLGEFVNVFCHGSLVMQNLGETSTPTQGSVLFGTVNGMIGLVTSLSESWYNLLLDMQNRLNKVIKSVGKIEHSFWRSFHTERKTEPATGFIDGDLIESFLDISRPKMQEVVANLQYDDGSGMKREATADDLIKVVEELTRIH

For `CC(=O)NCCOCCOCCNc1cccc(C(=O)Nc2nc(C)c(C)s2)c1C` [B1-80, 3-((2-(2-(2-acetamidoethoxy)ethoxy)ethyl)amino)-N-(4,5-dimethylthiazol-2-yl)-2-methylbenzamide], the Kd on DDB1 is less than 20 µM. The same measure, in the same setting: for `Cc1ccccc1C(=O)Nc1cc(C)n(C)n1` [B1-8, N-(1,5-dimethyl-1H-pyrazol-3-yl)-2-methylbenzamide] the value was more than 100 µM; for `COC(=O)c1nc(NC(=O)c2ccccc2C)sc1C` [B1-4, methyl 5-methyl-2-(2-methylbenzamido)thiazole-4-carboxylate], less than 20 µM. Same read-out and setting: next, `Cc1ccccc1C(=O)Nc1nc(C2CC2)c(C)s1` [B1-7, N-(4-cyclopropyl-5-methylthiazol-2-yl)-2-methylbenzamide]: more than 100 µM.

`CC(=O)Nc1ccccc1C(=O)Nc1ccc(C)cn1` [B1-31, 2-acetamido-N-(5-methylpyridin-2-yl)benzamide] came in with a Kd at DDB1 of more than 100 µM. `CC(=O)c1c(C)c2cnc(Nc3ccc(N4CCN(CC(=O)NCCOCCOCCOCCOCCNc5cccc(C(=O)Nc6nc(C)c(C)s6)c5C)CC4)cn3)nc2n(C2CCCC2)c1=O` [CPD-106, 3-((1-(4-(6-((6-Acetyl-8-cyclopentyl-5-methyl-7-oxo-7,8-dihydropyrido[2,3-d]pyrimidin-2-yl)amino)pyridin-3-yl)piperazin-1-yl)-2-oxo-6,9,12,15-tetraoxa-3-azaheptadecan-17-yl)amino)-N-(4,5-dimethylthiazol-2-yl)-2-methylbenzamide]: in the experiment with cyclin D1, the “CyclinD1 Degradation (200 nM)” value is reported as “A (protein percentage degradation >=80%)”. Moreover, at CDK4 (Calu-1 cells, 200 nM, 16 hours), the inhibition at 0.2 µM is 50 to 80%. As for `CC(=O)c1c(C)c2cnc(Nc3ccc(N4CCN(C(=O)CCOCCC(=O)Nc5ccccc5C(=O)Nc5nc(C)c(C)s5)CC4)cn3)nc2n(C2CCCC2)c1=O` [CPD-181, 2-(3-(3-(4-(6-((6-Acetyl-8-cyclopentyl-5-methyl-7-oxo-7,8-dihydropyrido[2,3-d]pyrimidin-2-yl)amino)pyridin-3-yl)piperazin-1-yl)-3-oxopropoxy)propanamido)-N-(4,5-dimethylthiazol-2-yl)benzamide], in the experiment with cyclin D1, the “CyclinD1 Degradation (200 nM)” value was “D (protein percentage degradation <30%)”. Further, the inhibition at 0.2 µM at CDK4 (Calu-1, 16 h) is less than 30%. Consider `CC(=O)c1c(C)c2cnc(Nc3ccc(N4CCN(CC(=O)NCCOCCOCCOCCNC(=O)CNc5ccc(C(=O)Nc6ncc(C)s6)c(C)c5)CC4)cn3)nc2n(C2CCCC2)c1=O` [CPD-018, 4-((17-(4-(6-((6-Acetyl-8-cyclopentyl-5-methyl-7-oxo-7,8-dihydropyrido[2,3-d]pyrimidin-2-yl)amino)pyridin-3-yl)piperazin-1-yl)-2,16-dioxo-6,9,12-trioxa-3,15-diazaheptadecyl)amino)-2-methyl-N-(5-methylthiazol-2-yl)benzamide], for which the “CyclinD1 Degradation (200 nM)” value in the experiment with cyclin D1 was “C (protein percentage degradation <50%, and >=30%)”. Moreover, the inhibition at 0.2 µM on CDK4 (Calu-1 cells, 200 nM, 16 hours) fell in the range of 30 to 50%.

For `CC(=O)c1c(C)c2cnc(Nc3ccc(N4CCN(C(=O)CCOCCOCCOCCC(=O)Nc5ccccc5C(=O)Nc5nc(C)c(C)s5)CC4)cn3)nc2n(C2CCCC2)c1=O` [CPD-357, 2-(3-(2-(2-(3-(4-(6-((6-Acetyl-8-cyclopentyl-5-methyl-7-oxo-7,8-dihydropyrido[2,3-d]pyrimidin-2-yl)amino)pyridin-3-yl)piperazin-1-yl)-3-oxopropoxy)ethoxy)ethoxy)propanamido)-N-(4,5-dimethylthiazol-2-yl)benzamide], the “CyclinD1 Degradation (200 nM)” value with cyclin D1 is on record as “A (protein percentage degradation >=80%)”. For the same molecule, the inhibition at 0.2 µM on CDK4 (Calu-1, 16 h) lay within 50 to 80%. Turning to `CC(=O)c1c(C)c2cnc(Nc3ccc(N4CCN(CC(=O)NCCOCCOCCC(=O)Nc5ccccc5C(=O)Nc5cc(C(F)(F)F)n(C)n5)CC4)cn3)nc2n(C2CCCC2)c1=O` [CPD-069, 2-(3-(2-(2-(2-(4-(6-((6-Acetyl-8-cyclopentyl-5-methyl-7-oxo-7,8-dihydropyrido[2,3-d]pyrimidin-2-yl)amino)pyridin-3-yl)piperazin-1-yl)acetamido)ethoxy)ethoxy)propanamido)-N-(1-methyl-5-(trifluoromethyl)-1H-pyrazol-3-yl)benzamide], in the experiment with cyclin D1, the “CyclinD1 Degradation (200 nM)” value is reported as “D (protein percentage degradation <30%)”. Further, on CDK4 (Calu-1 cells, 200 nM, 16 hours), the inhibition at 0.2 µM was less than 30%. Regarding `CC(=O)c1c(C)c2cnc(Nc3ccc(N4CCN(CC(=O)NCCCCC(=O)Nc5ccccc5C(=O)Nc5ccc(C)cn5)CC4)cn3)nc2n(C2CCCC2)c1=O` [CPD-269, 2-(5-(2-(4-(6-((6-Acetyl-8-cyclopentyl-5-methyl-7-oxo-7,8-dihydropyrido[2,3-d]pyrimidin-2-yl)amino)pyridin-3-yl)piperazin-1-yl)acetamido)pentanamido)-N-(5-methylpyridin-2-yl)benzamide], the “CyclinD1 Degradation (200 nM)” value in the experiment on cyclin D1 is “B (protein percentage degradation <80%, and >=50%)”. Further, the inhibition at 0.2 µM at CDK4 (Calu-1 cells, 200 nM, 16 hours) was in the range of 50 to 80%. In the case of `CC(=O)c1c(C)c2cnc(Nc3ccc(N4CCN(CC(=O)NCCCCCCCCCNC(=O)CNc5ccc(C(=O)Nc6ncc(C)s6)c(C)c5)CC4)cn3)nc2n(C2CCCC2)c1=O` [CPD-035], the “CyclinD1 Degradation (200 nM)” value with cyclin D1 is “C (protein percentage degradation <50%, and >=30%)”. The inhibition at 0.2 µM at CDK4 (Calu-1 cells, 200 nM, 16 hours) was in the range of 30 to 50%. For `Cc1nc(NC(=O)c2ccccc2NC(=O)CCCNC(=O)CN2CCN(c3ccc(Nc4ncc(F)c(-c5cc(F)c6nc(C)n(C(C)C)c6c5)n4)nc3)CC2)sc1C` [CPD-302, N-(4,5-Dimethylthiazol-2-yl)-2-(4-(2-(4-(6-((5-fluoro-4-(4-fluoro-1-isopropyl-2-methyl-1H-benzo[d]imidazol-6-yl)pyrimidin-2-yl)amino)pyridin-3-yl)piperazin-1-yl)acetamido)butanamido)benzamide], in the experiment with cyclin D1, the “CyclinD1 Degradation (10 μM)” value was “D (protein percentage degradation < 30%)”. The inhibition at 10 µM on CDK4 (Calu-1 cells, 16 hours) was less than 30%. In the case of `CC(=O)c1c(C)c2cnc(Nc3ccc(N4CCN(CC(=O)NCCOCCOCCC(=O)Nc5ccccc5C(=O)Nc5cc(C)n(C(C)C)n5)CC4)cn3)nc2n(C2CCCC2)c1=O` [CPD-076, 2-(3-(2-(2-(2-(4-(6-((6-Acetyl-8-cyclopentyl-5-methyl-7-oxo-7,8-dihydropyrido[2,3-d]pyrimidin-2-yl)amino)pyridin-3-yl)piperazin-1-yl)acetamido)ethoxy)ethoxy)propanamido)-N-(1-isopropyl-5-methyl-1H-pyrazol-3-yl)benzamide], the “CyclinD1 Degradation (200 nM)” value in the experiment with cyclin D1 is “C (protein percentage degradation <50%, and >=30%)”. At CDK4 (Calu-1 cells, 200 nM, 16 hours), the inhibition at 0.2 µM was 50 to 80%.

Take `Cc1nc(NC(=O)c2ccccc2NC(=O)CCOCCOCCOCCOCCOCCNC(=O)CN2CCN(Cc3ccc(Nc4ncc(F)c(-c5cc(F)c6nc(C)n(C(C)C)c6c5)n4)nc3)CC2)sc1C` [CPD-284, N-(4,5-Dimethylthiazol-2-yl)-2-(1-(4-((6-((5-fluoro-4-(4-fluoro-1-isopropyl-2-methyl-1H-benzo[d]imidazol-6-yl)pyrimidin-2-yl)amino)pyridin-3-yl)methyl)piperazin-1-yl)-2-oxo-6,9,12,15,18-pentaoxa-3-azahenicosan-21-amido)benzamide]: the “CyclinD1 Degradation (10 μM)” value with cyclin D1 was “D (protein percentage degradation < 30%)”. The inhibition at 10 µM on CDK4 (Calu-1 cells, 16 hours) is less than 30%. For the molecule `CC(=O)c1c(C)c2cnc(Nc3ccc(N4CCN(CC(=O)NCCOCCOCCCNc5ccccc5C(=O)Nc5nc(C)c(C)s5)CC4)cn3)nc2n(C2CCCC2)c1=O` [CPD-267, 2-((3-(2-(2-(2-(4-(6-((6-Acetyl-8-cyclopentyl-5-methyl-7-oxo-7,8-dihydropyrido[2,3-d]pyrimidin-2-yl)amino)pyridin-3-yl)piperazin-1-yl)acetamido)ethoxy)ethoxy)propyl)amino)-N-(4,5-dimethylthiazol-2-yl)benzamide], the “CyclinD1 Degradation (200 nM)” value in the experiment with cyclin D1 was “A (protein percentage degradation >=80%)”. In addition, the inhibition at 0.2 µM at CDK4 (Calu-1 cells, 200 nM, 16 hours) lay within 50 to 80%.

One may read the Kd as the constant that tells how readily two partners part at equilibrium. High values mean lower affinity, low ones higher affinity.

Values taken from patent publication US20250235543A1, “MODIFIED PROTEINS AND PROTEIN DEGRADERS” (Cullgen (Shanghai), Inc., priority 2021, published 2025).
